Reference: patent US6984635B1, “Dimerizing agents, their production and use” (Board of Trustees of The Leland Stanford Jr. University, priority 1998, dated 2006)

Columns and labels:
Format in all cases: cell-based
[1] = molecular target: T1, Gal4-FKBP3 / wild type FRB-VP16 (Homo sapiens, UniProt P42345+P62942); test: activation of transcription in Jurkat cells transfected with Gal4-FKBP3, wild type FRB-VP16 and UAS-SEAP
T1 construct: Jurkat cells transfected with Gal4-FKBP3, wild type FRB-VP16, and UAS-SEAP; expressed in transfected cells; host or cells: Jurkat cells
From the text: The ability of the rapalogs to multimerize chimeric proteins may be measured in cell-based assays by measuring the occurrence of an event triggered by such multimerization. For instance, one may use cells containing and capable of expressing DNA encoding a first chimeric protein comprising one or more FKBP-domains and one or more effector domains as well as DNA encoding a second chimeric protein containing an FRB domain and one or more effector domains capable, upon multimerization, of actuating a biological response. We prefer to use cells which further contain a reporter gene under the transcriptional control of a regulatory element (i.e., promoter) which is responsive to the multimerization of the chimeric proteins. The design and preparation of illustrative components and their use in so engineered cells is described in WO96/41865 and the other international patent applications referred to in this and the foregoing section. The cells are grown or maintained in culture. A rapalog is added to the culture medium and after a suitable incubation period (to permit gene expression and secretion, e.g. several hours or overnight) the presence of the reporter gene product is measured. Positive results, i.e., multimerization, correlates with transcription of the reporter gene as observed by the appearance of the reporter gene product. […]

[2] = molecular target: T2, Gal4-FKBP3 / FRB*-VP16 (FRB harboring T2098L, W2101F, and K2095P) (Homo sapiens, UniProt P42345+P62942, K2095P/T2098L/W2101F); test: activation of transcription in Jurkat cells transfected with Gal4-FKBP3, FRB*-VP16 and UAS-SEAP; settings: for amplitude of reporter gene activity: FRB*-VP16, compared with rapamycin/wild type FRB-VP16 system; for EC50: FRB*-VP16 replaces wild type FRB-VP16, read-out: EC50 of reporter gene activity
T2 construct: FRB*-VP16 (FRB harboring T2098L, W2101F, and K2095P) replaces wild type FRB-VP16; expressed in transfected cells; host or cells: Jurkat cells
From the text: The ability of the rapalogs to multimerize chimeric proteins may be measured in cell-based assays by measuring the occurrence of an event triggered by such multimerization. For instance, one may use cells containing and capable of expressing DNA encoding a first chimeric protein comprising one or more FKBP-domains and one or more effector domains as well as DNA encoding a second chimeric protein containing an FRB domain and one or more effector domains capable, upon multimerization, of actuating a biological response. We prefer to use cells which further contain a reporter gene under the transcriptional control of a regulatory element (i.e., promoter) which is responsive to the multimerization of the chimeric proteins. The design and preparation of illustrative components and their use in so engineered cells is described in WO96/41865 and the other international patent applications referred to in this and the foregoing section. The cells are grown or maintained in culture. A rapalog is added to the culture medium and after a suitable incubation period (to permit gene expression and secretion, e.g. several hours or overnight) the presence of the reporter gene product is measured. Positive results, i.e., multimerization, correlates with transcription of the reporter gene as observed by the appearance of the reporter gene product. The reporter gene product may be a conveniently detectable protein (e.g. by ELISA) or may catalyze the production of a conveniently detectable product (e.g. colored). Materials and methods for producing appropriate cell lines for conducting such assays are disclosed in the international patent applications cited above in this section. Typically used target genes include by way of example SEAP, hGH, beta-galactosidase, Green Fluorescent Protein and luciferase, for which convenient assays are commercially available.
Likewise, C3-allyl rapamycin and C3-methallyl rapamycin were impaired in their ability to activate transcription in Jurkat cells transfected with Gal4-FKBP3, wild type FRB-VP16, and UAS-SEAP. […] C3 derivatives of rapamycin have impaired toxicity (immunosuppressive activity) and can be used efficiently as dimerizers in conjunction with engineered FRB domains. Preparation of 24(S),30(S)-tetrahydro-C3-rapalogs [drawing 30]

[3] = system: CTLL-2 cells; test: inhibition of proliferation of CTLL-2 cells (toxicity)
Procedure: The toxicity of the lead compounds was tested by their ability to inhibit the proliferation of CTLL-2 cells, which are IL-2 dependent and highly sensitive to rapamycin (IC50<1 nM).

T2 sequence (P62942 2-108 limits assumed): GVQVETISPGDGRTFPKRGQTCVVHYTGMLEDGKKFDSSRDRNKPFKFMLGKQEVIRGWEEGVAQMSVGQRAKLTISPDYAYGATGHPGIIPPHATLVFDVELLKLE
T2 sequence (P42345 2012-2144 K2095P/T2098L/W2101F limits assumed): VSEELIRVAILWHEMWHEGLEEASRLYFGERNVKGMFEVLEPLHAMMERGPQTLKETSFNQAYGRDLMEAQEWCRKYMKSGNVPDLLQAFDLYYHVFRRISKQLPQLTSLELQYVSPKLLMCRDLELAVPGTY
T1 sequence (P62942 2-108 limits assumed): as the sequence (P62942 2-108 limits assumed) above
T1 sequence (P42345 2012-2144 limits assumed): as the sequence (P42345 2012-2144 K2095P/T2098L/W2101F limits assumed) above, with P84K, L87T, F90W counted along it

| ability to activate transcription (SEAP reporter) [1] | EC50 [2] [nM] | Molecule | amplitude of reporter gene activity [2] | effect on proliferation of CTLL-2 cells ([3]; incubation with 1 μM compound) | IC50 ([3]; IL-2 dependent CTLL-2 cells) [nM] |
| --- | --- | --- | --- | --- | --- |
| impaired | ~10 | C=CCC1C=CC(C)=CCC2CCC(C)C(O)(O2)C(=O)C(=O)N2CCCCC2C(=O)OC(C(C)CC2CCC(O)C(OC)C2)CC(=O)C(C)C=C(C)C(O)C(OC)C(=O)C(C)CC(C)C=C1 (centres unmarked) [C3-allyl rapamycin, 3-allyl-rapamycin] | higher than that elicited by the rapamycin/wild type FRB-VP16 system | – | – |
| impaired | ~10 | C=C(C)CC1C=CC(C)=CCC2CCC(C)C(O)(O2)C(=O)C(=O)N2CCCCC2C(=O)OC(C(C)CC2CCC(O)C(OC)C2)CC(=O)C(C)C=C(C)C(O)C(OC)C(=O)C(C)CC(C)C=C1 (centres unmarked) [C3-methallyl rapamycin, 3-methallyl-rapamycin] | higher than that elicited by the rapamycin/wild type FRB-VP16 system | no detectable effect | – |
| – | – | Rapamycin [reference compound] | – | – | < 1 |
